According to PubChem BioAssay (NCI):
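Method: 48-hour compound exposure of cells in 96-well plates, five concentrations, linear interpolation of endpoints. The concentration for 50% growth inhibition is given as GI50. The concentration for full growth arrest is given as TGI.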

Key:
Experiment in all cases: inhibition of tumour cell growth, NCI panel, 48 h
[1] = system: UO-31 renal
[2] = system: COLO 205 colon
[3] = system: MALME-3M melanoma
[4] = system: OVCAR-5 ovarian
[5] = system: SR leukemia
[6] = system: NCI-H23 lung
[7] = system: M14 melanoma
[8] = system: HOP-92 NSCLC
[9] = system: 786-0 renal
[10] = system: A498 renal
[11] = system: SF-295 CNS
[12] = system: DU-145 prostate
[13] = system: NCI-H460 lung
[14] = system: NCI/ADR-RES ovarian
[15] = system: PC-3 prostate
[16] = system: K-562 leukemia
[17] = system: HCC-2998 colon
[18] = system: HT29 colon
[19] = system: NCI-H226 lung
[20] = system: MDA-MB-231 breast
[21] = system: SNB-19 CNS
[22] = system: EKVX NSCLC
[23] = system: NCI-H522 lung
[24] = system: SK-MEL-5 melanoma
[25] = system: A549 NSCLC
[26] = system: KM12 colon
[27] = system: HOP-62 NSCLC
[28] = system: MDA-MB-435
[29] = system: HL-60(TB) leukemia
[30] = system: U251 CNS
[31] = system: MOLT-4 leukemia
[32] = system: SF-268 CNS
[33] = system: SK-MEL-2 melanoma
[34] = system: SNB-75 CNS
[35] = system: BT-549 breast
[36] = system: OVCAR-4 ovarian
[37] = system: SN12C renal
[38] = system: OVCAR-8 ovarian
[39] = system: UACC-62 melanoma
[40] = system: TK-10 renal
[41] = system: LOX IMVI melanoma
[42] = system: SW-620 colon
[43] = system: UACC-257 melanoma
[44] = system: SK-OV-3 ovarian
[45] = system: OVCAR-3 ovarian
[46] = system: SK-MEL-28 melanoma
[47] = system: CAKI-1 renal
[48] = system: ACHN renal
[49] = system: RXF 393 renal
[50] = system: IGROV1 ovarian
[51] = system: HCT-15 colon
[52] = system: HS 578T breast
[53] = system: MCF7 breast
[54] = system: HCT-116 colon
[55] = system: CCRF-CEM leukemia
[56] = system: SF-539 CNS
[57] = system: RPMI-8226 leukemia
[58] = system: T-47D breast

## CCN(CC)CCCCNc1c2ccccc2[n+](C)c2c1[nH]c1ccccc12
[1]
  GI50: 3130 nM
  TGI: > 50600 nM
[2]
  GI50: 189 nM
  TGI: 983 nM
[3]
  GI50: 217 nM
  TGI: 671 nM
[4]
  GI50: 1000 nM
  TGI: 11500 nM
[5]
  GI50: 373 nM
  TGI: 42200 nM
[6]
  GI50: 221 nM
  TGI: 1070 nM
[7]
  GI50: 1410 nM
  TGI: 4640 nM
[8]
  TGI: 280 nM
[9]
  GI50: 1290 nM
  TGI: > 26000 nM
[10]
  GI50: 613 nM
  TGI: 2390 nM
[11]
  GI50: 542 nM
  TGI: 4310 nM
[12]
  GI50: 182 nM
  TGI: 11500 nM
[13]
  GI50: 83.7 nM
  TGI: 2270 nM
[14]
  GI50: 48800 nM
  TGI: > 100000 nM
[15]
  GI50: 355 nM
  TGI: 2290 nM
[16]
  GI50: 379 nM
  TGI: 3900 nM
[17]
  GI50: 270 nM
  TGI: 763 nM
[18]
  GI50: 229 nM
  TGI: 1090 nM
[19]
  GI50: 202 nM
  TGI: 1180 nM
[20]
  TGI: > 20300 nM
[21]
  GI50: 269 nM
  TGI: 2030 nM
[22]
  GI50: 298 nM
  TGI: 3160 nM
[23]
  GI50: 79.6 nM
  TGI: 217 nM
[24]
  GI50: 283 nM
  TGI: 976 nM
[25]
  GI50: 55.8 nM
  TGI: 33200 nM
[26]
  GI50: 385 nM
  TGI: 4790 nM
[27]
  GI50: 683 nM
  TGI: 6150 nM
[28]
  GI50: 600 nM
  TGI: 2160 nM
[29]
  GI50: 5690 nM
  TGI: > 31000 nM
[30]
  GI50: 238 nM
  TGI: 4460 nM
[31]
  GI50: 269 nM
  TGI: 23800 nM
[32]
  GI50: 209 nM
  TGI: 1400 nM
[33]
  GI50: 310 nM
  TGI: 956 nM
[34]
  GI50: 297 nM
  TGI: 1270 nM
[35]
  GI50: 1670 nM
  TGI: 4150 nM
[36]
  GI50: 345 nM
  TGI: 2570 nM
[37]
  GI50: 69.9 nM
  TGI: 6080 nM
[38]
  GI50: 786 nM
  TGI: 19800 nM
[39]
  GI50: 86.8 nM
  TGI: 260 nM
[40]
  GI50: 2520 nM
  TGI: 12600 nM
[41]
  GI50: 346 nM
  TGI: 2030 nM
[42]
  GI50: 395 nM
  TGI: 7470 nM
[43]
  GI50: 840 nM
  TGI: 2400 nM
[44]
  GI50: 366 nM
  TGI: 3720 nM
[45]
  GI50: 433 nM
  TGI: 3560 nM
[46]
  GI50: 201 nM
  TGI: 539 nM
[47]
  GI50: 2050 nM
  TGI: 14400 nM
[48]
  GI50: 2270 nM
  TGI: > 47300 nM
[49]
  GI50: 402 nM
  TGI: 2160 nM
[50]
  GI50: 473 nM
  TGI: 7400 nM
[51]
  GI50: 7150 nM
  TGI: > 70000 nM
[52]
  GI50: 238 nM
  TGI: 865 nM
[53]
  GI50: 256 nM
  TGI: 3630 nM
[54]
  GI50: 356 nM
[55]
  GI50: 590 nM
  TGI: 3390 nM
[56]
  GI50: 473 nM
  TGI: 1740 nM
[57]
  GI50: 255 nM
  TGI: 1320 nM
[58]
  GI50: 178 nM
  TGI: 1100 nM
